One assay has as its system HepG2 cells. Description: Cell uptake of ^18F-CML and native CML in HepG2 cells. Particulars: incubation 2 hours. The class given is cell-based. The method, then: (§1) To compare the different bioactivities of CML and ^18F-CML, two cell lines were evaluated for their capacity to take up native CML and the fluorobenzoylated derivative ^18F-CML. RAW264.7 macrophages and HepG2 liver cells were cultured in DMEM/LOWGLUCOSE, supplemented with 10% fetal bovine serum (FBS), 4.0 mmol/L L-glutamine, 110 mg/L sodium pyruvate, 100 U/mL penicillin, and 100 mg/L streptomycin at 37°C and 5% CO2.
(§2) For ^18F-CML cell uptake studies, RAW264.7 cells and HepG2 cells were seeded into 24-well plates at a density of 4×10^5 cells per well. Radio-tracer ^18F-CML (0.5 µCi/well, 3 µmol/mL) was incubated in a 37°C water bath for 15, 30, 60, and 120 min. At each time point the cells were washed 3 times with phosphate-buffered saline (PBS). The supernatant, washing-up liquid (unbound activity) and the pellet (cell-bound activity) were transferred to new tubes. Triplicates of the counting tubes containing supernatant and cell pellet were counted individually using a gamma counter for 1 min. For the blocking experiment, the uptake was carried out in the presence of the non-radioactive CML(10 µmol/mL) and processed similarly as described above. The uptake (%) of radio-tracer into the cell was determined using a gamma counter according to the following equation: [drawing 1]
(§3) For CML cell uptake ratio studies, unaltered CML (10 µmol/mL) was added to RAW264.7 and HepG2 cell pellets individually. The total proteins of each cell line were initially extracted from the lysates of 4×10^5 cells. […] The supernatants were purified and detected usingby the method described by Drusch et al., which uses an RP-HPLC method with an ortho-phthaldialdehyde (OPA)-derivatisation and fluorescence detection suited for automation. The HPLC analysis method used a 250 mm×4.6 mm C18 column (GROM-SIL 100 ODS-0 AB, Herrenberg, Germany) and detected the fluorescence excitation at 340 nm and emission at 455 nm. The peak identification of CML was confirmed by the retention time and standard addition and was quantified using an external standard. The amount of CML was calculated and expressed as a percentage.

The test system of the next assay is RAW264.7 cells. Description: Cell uptake of ^18F-CML and native CML in RAW264.7 cells. The class given is cell-based. Conditions: incubation 2 hours. The method, then: as §1, §2, §3

Consider `NC(CCCCNCC(=O)O)C(=O)O` (stereo not shown) [CML, N^ε-carboxymethyl-lysine], for which the entries for the “Uptake ratio of unaltered CML, amount less than ^18F-CML” value with HepG2 cells (P<0.01) and with RAW264.7 cells (P<0.01) were 0.2% and 0.3%, respectively. For the same compound, the “Uptake of unaltered CML” value is recorded as 6.3 µg/mg of cell protein in the assay with HepG2 cells (n=3) and 8.2 µg/mg of cell protein in the assay with RAW264.7 cells (n=3).

These data come from article PMC3591457, “Biodistribution and Elimination Study of Fluorine-18 Labeled N^ε-Carboxymethyl-Lysine following Intragastric and Intravenous Administration” (PLoS ONE, 2013).
